Measured values from patent publication US9078825B2, “Method for the production of bioadhesive compact matrices” (Università degli Studi di Genova, priority 2008, dated 2015).
Where a name gives a salt, the structure may show the parent alone.

Assay: Heating of the active substance at 150° C. for 15 minutes (HPLC, DSC, TGA, HSM, spectroscopic investigations)
Assay type: physicochemical
Protocol: Physical Stability Studies on the Active Substances and the Excipients Used in the Formulation of the Tablets.
5.0 mg carefully weighed of every excipient/substance was placed in aluminium pans, closed with a suitable press and analyzed by means of DSC (Perkin Elmer 7) under nitrogen flow; the analysis was also carried out on the thermally-treated powders. The operating conditions utilised were the following: initial temperature (Tstart)=50° C.; final temperature (Tend) 250° C.; gradient=10° C./min.
The determination of the weight variations of the active substances and excipients, of the powder mixtures and the powders obtained by crushing the tablets was conducted through TGA 7 of Perkin Elmer, in nitrogen atmosphere, using the same temperatures and the same heating gradients used in the thermal heat treatments.

SMILES: COc1ccc([C@@H]2Sc3ccccc3N(CCN(C)C)C(=O)[C@@H]2OC(C)=O)cc1 [Diltiazem hydrochloride]
- physical or chemical modification after heating: did not involve any physical or chemical modification
